# Laboratory results taken from PubChem BioAssay AID1963440 (Molecular Pharmacology Branch, DTP, NCI, 2024).
# Test system: NCI-H1417 complex spheroids, growth % test/control
# Assay: Anticancer human tumor NCI-H1417 cell line growth inhibition [Asc];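 also: spheroids exposed to compounds for 7 days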;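 as to viability, T/C: 100% = DMSO vehicle control wells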
# Conditions: for IC50: curve of first compound; for viability, T/C: stronger effect = lower value
# Method in brief: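 Complex spheroids combining tumor cells with HUVEC endothelial cells and human MSCs, at 37 degrees C, 5% CO2; agents tested alone or combined, half-log dilutions from at or near clinical Cmax, or 10 microM if Cmax unknown.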
# [1] = second compound 0.1 µM, first compound 0.0316 µM
# [2] = second compound 0.1 µM, first compound 0.1 µM
# [3] = second compound 0.1 µM, first compound 0.316 µM
# [4] = second compound 0.1 µM, first compound 1 µM
# [5] = second compound 0.1 µM, first compound 3.16 µM
# [6] = second compound 0.1 µM, first compound 10 µM
# [7] = second compound 0.316 µM, first compound 0.0316 µM
# [8] = second compound 0.316 µM, first compound 0.1 µM
# [9] = second compound 0.316 µM, first compound 0.316 µM
# [10] = second compound 0.316 µM, first compound 1 µM
# [11] = second compound 0.316 µM, first compound 3.16 µM
# [12] = second compound 0.316 µM, first compound 10 µM
# [13] = second compound 1 µM, first compound 0.0316 µM
# [14] = second compound 1 µM, first compound 0.1 µM
# [15] = second compound 1 µM, first compound 0.316 µM
# [16] = second compound 1 µM, first compound 1 µM
# [17] = second compound 1 µM, first compound 3.16 µM
# [18] = second compound 1 µM, first compound 10 µM
# [19] = second compound 3.16 µM, first compound 0.0316 µM
# [20] = second compound 3.16 µM, first compound 0.1 µM
# [21] = second compound 10 µM, first compound 0.0316 µM
# [22] = second compound 10 µM, first compound 0.1 µM
smiles,measurement,setting,value
C=C(F)C(=O)N1CCN(c2nc(OCC3CCCN3C)nc3c2CCN(c2cccc4cccc(Cl)c24)C3)CC1CC#N (stereo not given) + CNC(C)C(=O)NC1CN(S(=O)(=O)c2cccc(S(=O)(=O)N3CCC4CCC(C(=O)NC(c5ccccc5)c5ccccc5)N4C(=O)C(NC(=O)C(C)NC)C3)c2)CCC2CCC(C(=O)NC(c3ccccc3)c3ccccc3)N2C1=O,IC50,second compound 0.01 µM,4.6 µM
same,IC50,second compound 0.0316 µM,3.76 µM
same,IC50,second compound 0.1 µM,3.98 µM
same,IC50,second compound 0.316 µM,3.07 µM
same,IC50,second compound 1 µM,3.23 µM
same,"viability, T/C","second compound 0.01 µM, first compound 0.0316 µM",111%
same,"viability, T/C","second compound 0.01 µM, first compound 0.1 µM",101%
same,"viability, T/C","second compound 0.01 µM, first compound 0.316 µM",106%
same,"viability, T/C","second compound 0.01 µM, first compound 1 µM",92.2%
same,"viability, T/C","second compound 0.01 µM, first compound 3.16 µM",76.2%
same,"viability, T/C","second compound 0.01 µM, first compound 10 µM",0.22%
same,"viability, T/C","second compound 0.0316 µM, first compound 0.0316 µM",98.6%
same,"viability, T/C","second compound 0.0316 µM, first compound 0.1 µM",102%
same,"viability, T/C","second compound 0.0316 µM, first compound 0.316 µM",93.2%
same,"viability, T/C","second compound 0.0316 µM, first compound 1 µM",105%
same,"viability, T/C","second compound 0.0316 µM, first compound 3.16 µM",58.8%
same,"viability, T/C","second compound 0.0316 µM, first compound 10 µM",0.2%
same,"viability, T/C",[1],90.6%
same,"viability, T/C",[2],99.5%
same,"viability, T/C",[3],89.8%
same,"viability, T/C",[4],90%
same,"viability, T/C",[5],62.3%
same,"viability, T/C",[6],0.2%
same,"viability, T/C",[7],94.5%
same,"viability, T/C",[8],90.8%
same,"viability, T/C",[9],94.8%
same,"viability, T/C",[10],97.1%
same,"viability, T/C",[11],48.9%
same,"viability, T/C",[12],0.21%
same,"viability, T/C",[13],95.2%
same,"viability, T/C",[14],101%
same,"viability, T/C",[15],106%
same,"viability, T/C",[16],101%
same,"viability, T/C",[17],50.9%
same,"viability, T/C",[18],1.03%
CCN1C(C(=O)NC23CCC(C(=O)O)(CC2)CC3)C(c2cccc(Cl)c2F)C2(C(=O)Nc3cc(Cl)ccc32)C12CCCCC2 (stereo not given) + CNC(C)C(=O)NC1CN(S(=O)(=O)c2cccc(S(=O)(=O)N3CCC4CCC(C(=O)NC(c5ccccc5)c5ccccc5)N4C(=O)C(NC(=O)C(C)NC)C3)c2)CCC2CCC(C(=O)NC(c3ccccc3)c3ccccc3)N2C1=O,IC50,second compound 0.01 µM,> 3 µM
same,IC50,second compound 0.0316 µM,> 3 µM
same,IC50,second compound 0.1 µM,> 3 µM
same,IC50,second compound 0.316 µM,> 3 µM
same,IC50,second compound 1 µM,> 3 µM
same,"viability, T/C","second compound 0.01 µM, first compound 0.00949 µM",105%
same,"viability, T/C","second compound 0.01 µM, first compound 0.03 µM",104%
same,"viability, T/C","second compound 0.01 µM, first compound 0.0949 µM",105%
same,"viability, T/C","second compound 0.01 µM, first compound 0.3 µM",99.7%
same,"viability, T/C","second compound 0.01 µM, first compound 0.949 µM",106%
same,"viability, T/C","second compound 0.01 µM, first compound 3 µM",120%
same,"viability, T/C","second compound 0.0316 µM, first compound 0.00949 µM",107%
same,"viability, T/C","second compound 0.0316 µM, first compound 0.03 µM",118%
same,"viability, T/C","second compound 0.0316 µM, first compound 0.0949 µM",106%
same,"viability, T/C","second compound 0.0316 µM, first compound 0.3 µM",86%
same,"viability, T/C","second compound 0.0316 µM, first compound 0.949 µM",101%
same,"viability, T/C","second compound 0.0316 µM, first compound 3 µM",96.2%
same,"viability, T/C","second compound 0.1 µM, first compound 0.00949 µM",103%
same,"viability, T/C","second compound 0.1 µM, first compound 0.03 µM",102%
same,"viability, T/C","second compound 0.1 µM, first compound 0.0949 µM",99.7%
same,"viability, T/C","second compound 0.1 µM, first compound 0.3 µM",88.6%
same,"viability, T/C","second compound 0.1 µM, first compound 0.949 µM",95.7%
same,"viability, T/C","second compound 0.1 µM, first compound 3 µM",120%
same,"viability, T/C","second compound 0.316 µM, first compound 0.00949 µM",105%
same,"viability, T/C","second compound 0.316 µM, first compound 0.03 µM",95.1%
same,"viability, T/C","second compound 0.316 µM, first compound 0.0949 µM",105%
same,"viability, T/C","second compound 0.316 µM, first compound 0.3 µM",102%
same,"viability, T/C","second compound 0.316 µM, first compound 0.949 µM",104%
same,"viability, T/C","second compound 0.316 µM, first compound 3 µM",108%
same,"viability, T/C","second compound 1 µM, first compound 0.00949 µM",110%
same,"viability, T/C","second compound 1 µM, first compound 0.03 µM",108%
same,"viability, T/C","second compound 1 µM, first compound 0.0949 µM",106%
same,"viability, T/C","second compound 1 µM, first compound 0.3 µM",108%
same,"viability, T/C","second compound 1 µM, first compound 0.949 µM",95.4%
same,"viability, T/C","second compound 1 µM, first compound 3 µM",106%
Cn1ncnc1[C@H]1c2n[nH]c(=O)c3cc(F)cc(c23)N[C@@H]1c1ccc(F)cc1 + Cc1c(S(C)(=O)=O)c(-c2cc(F)cc(N3CCN(c4ccc(NS(=O)(=O)c5ccc(NC(CCN6CCC(C(=O)OCCCP(=O)(O)O)CC6)CSc6ccccc6)c(S(=O)(=O)C(F)(F)F)c5)cc4)CC3)c2)c(-c2ccc(Cl)cc2)n1C(C)C,IC50,second compound 0.1 µM,0.00384 µM
same,IC50,second compound 0.316 µM,< 0.000316 µM
same,IC50,second compound 1 µM,< 0.000316 µM
same,IC50,second compound 3.16 µM,< 0.000316 µM
same,IC50,second compound 10 µM,< 0.000316 µM
same,"viability, T/C","second compound 0.1 µM, first compound 0.000316 µM",85.9%
same,"viability, T/C","second compound 0.1 µM, first compound 0.001 µM",83.2%
same,"viability, T/C","second compound 0.1 µM, first compound 0.00316 µM",54.8%
same,"viability, T/C","second compound 0.1 µM, first compound 0.01 µM",21.9%
same,"viability, T/C",[1],8.37%
same,"viability, T/C",[2],5.48%
same,"viability, T/C","second compound 0.316 µM, first compound 0.000316 µM",46.7%
same,"viability, T/C","second compound 0.316 µM, first compound 0.001 µM",42.7%
same,"viability, T/C","second compound 0.316 µM, first compound 0.00316 µM",31.7%
same,"viability, T/C","second compound 0.316 µM, first compound 0.01 µM",5.82%
same,"viability, T/C",[7],3.42%
same,"viability, T/C",[8],3.86%
same,"viability, T/C","second compound 1 µM, first compound 0.000316 µM",12.5%
same,"viability, T/C","second compound 1 µM, first compound 0.001 µM",10.4%
same,"viability, T/C","second compound 1 µM, first compound 0.00316 µM",6.37%
same,"viability, T/C","second compound 1 µM, first compound 0.01 µM",3.13%
same,"viability, T/C",[13],2.7%
same,"viability, T/C",[14],3.15%
same,"viability, T/C","second compound 3.16 µM, first compound 0.000316 µM",3.13%
same,"viability, T/C","second compound 3.16 µM, first compound 0.001 µM",2.74%
same,"viability, T/C","second compound 3.16 µM, first compound 0.00316 µM",2.64%
same,"viability, T/C","second compound 3.16 µM, first compound 0.01 µM",2.34%
same,"viability, T/C",[19],3.42%
same,"viability, T/C",[20],2.69%
same,"viability, T/C","second compound 10 µM, first compound 0.000316 µM",2.53%
same,"viability, T/C","second compound 10 µM, first compound 0.001 µM",2.63%
same,"viability, T/C","second compound 10 µM, first compound 0.00316 µM",2.54%
same,"viability, T/C","second compound 10 µM, first compound 0.01 µM",2.98%
same,"viability, T/C",[21],3.14%
same,"viability, T/C",[22],2.76%
O=C(c1cc(Cc2n[nH]c(=O)c3ccccc23)ccc1F)N1CCN(C(=O)C2CC2)CC1 + Cc1c(S(C)(=O)=O)c(-c2cc(F)cc(N3CCN(c4ccc(NS(=O)(=O)c5ccc(NC(CCN6CCC(C(=O)OCCCP(=O)(O)O)CC6)CSc6ccccc6)c(S(=O)(=O)C(F)(F)F)c5)cc4)CC3)c2)c(-c2ccc(Cl)cc2)n1C(C)C,IC50,second compound 0.1 µM,1.11 µM
same,IC50,second compound 0.316 µM,< 0.0316 µM
same,IC50,second compound 1 µM,< 0.0316 µM
same,IC50,second compound 3.16 µM,< 0.0316 µM
same,IC50,second compound 10 µM,< 0.0316 µM
same,"viability, T/C",[1],78.7%
same,"viability, T/C",[2],78.5%
same,"viability, T/C",[3],69.3%
same,"viability, T/C",[4],52.8%
same,"viability, T/C",[5],25.5%
same,"viability, T/C",[6],5.06%
same,"viability, T/C",[7],44.5%
same,"viability, T/C",[8],37%
same,"viability, T/C",[9],35.1%
same,"viability, T/C",[10],23.2%
same,"viability, T/C",[11],7.41%
same,"viability, T/C",[12],3.61%
same,"viability, T/C",[13],10.6%
same,"viability, T/C",[14],14.2%
same,"viability, T/C",[15],8.49%
same,"viability, T/C",[16],5.49%
same,"viability, T/C",[17],2.71%
same,"viability, T/C",[18],3.64%
same,"viability, T/C",[19],2.9%
same,"viability, T/C",[20],2.62%
same,"viability, T/C","second compound 3.16 µM, first compound 0.316 µM",2.54%
same,"viability, T/C","second compound 3.16 µM, first compound 1 µM",2.33%
same,"viability, T/C","second compound 3.16 µM, first compound 3.16 µM",2.43%
same,"viability, T/C","second compound 3.16 µM, first compound 10 µM",2.96%
same,"viability, T/C",[21],2.71%
same,"viability, T/C",[22],2.63%
same,"viability, T/C","second compound 10 µM, first compound 0.316 µM",2.54%
same,"viability, T/C","second compound 10 µM, first compound 1 µM",1.96%
same,"viability, T/C","second compound 10 µM, first compound 3.16 µM",2.66%
same,"viability, T/C","second compound 10 µM, first compound 10 µM",3.21%
